Laboratory results as given in PubChem BioAssay (NCI).
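Tested at 5 concentrations; 48 h exposure; 96-well plates; endpoints linearly interpolated, else capped at highest concentration. GI50 marks 50% less growth. TGI marks complete inhibition of growth.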

How the values were obtained:
Assay in all cases: NCI-60 cell line screen, 48 h
RPMI-8226 leukemia = system: RPMI-8226 leukemia
MOLT-4 leukemia = system: MOLT-4 leukemia
SR leukemia = system: SR leukemia
UO-31 renal = system: UO-31 renal
RXF 393 renal = system: RXF 393 renal
SNB-75 CNS = system: SNB-75 CNS
SF-539 CNS = system: SF-539 CNS
HL-60(TB) leukemia = system: HL-60(TB) leukemia
NCI-H23 lung = system: NCI-H23 lung
DU-145 prostate = system: DU-145 prostate

Structure (SMILES)	TGI (RPMI-8226 leukemia)	TGI (MOLT-4 leukemia)	TGI (SR leukemia)	TGI (UO-31 renal)	TGI (RXF 393 renal)	TGI (SNB-75 CNS)	TGI (SF-539 CNS)	TGI (HL-60(TB) leukemia)	TGI (NCI-H23 lung)	GI50 (UO-31 renal)	GI50 (RXF 393 renal)	GI50 (DU-145 prostate)	TGI (DU-145 prostate)	GI50 (SNB-75 CNS)	GI50 (SF-539 CNS)	GI50 (HL-60(TB) leukemia)	GI50 (NCI-H23 lung)	GI50 (RPMI-8226 leukemia)	GI50 (MOLT-4 leukemia)	GI50 (SR leukemia)
[N-]=[N+]=NC1(Cc2ccccc2)C(=O)c2cccc3c2N(CCC3)C1=O (configuration not stated)	> 100 µM	> 100 µM	> 100 µM	> 100 µM	> 100 µM	> 100 µM	> 100 µM	> 100 µM	> 100 µM											
O=C1CCC2(c3ccc(Cl)cc3)Nc3ncccc3N12 (configuration not stated)	> 100 µM	> 100 µM		> 100 µM	> 100 µM	> 100 µM	> 100 µM	> 100 µM	> 100 µM											
C#CCOc1cccc(-c2ncc3cc(NC(=O)CCl)ccc3n2)c1				2.91 µM	3.09 µM	15.4 µM	2.92 µM	8.02 µM	4.71 µM	1.52 µM	1.64 µM	1.79 µM	3.19 µM	2.22 µM	1.51 µM	2.28 µM	1.87 µM			
N#CN/C(N)=N/CO	> 76.2 µM	> 100 µM	72.4 µM	> 100 µM	43.5 µM	> 100 µM	> 100 µM	> 100 µM	> 100 µM											
C(=NCCN1CCOCC1)=NC1CCCCC1	> 100 µM	> 100 µM	> 100 µM	> 100 µM	> 100 µM	> 100 µM	> 100 µM		> 100 µM				> 100 µM							
CC1(C)COC(C2(C)C(=O)C=C(c3ccccc3)c3ccccc32)=N1 (configuration not stated)	> 100 µM	> 100 µM	> 100 µM	98.6 µM	> 100 µM	> 100 µM	> 100 µM	67.7 µM	> 100 µM											
CC1(C)C(C#N)C1C1=C(N2CCOCC2)[C@]2(C)C(OC(=O)c3ccccc3)CC[C@@H]2C1 (some centres not stated)		> 100 µM	> 100 µM	> 100 µM	> 100 µM	> 100 µM	> 100 µM		> 100 µM											
N#Cc1c(N)nc(N2CCOCC2)c(C#N)c1-c1ccncc1	> 100 µM	> 100 µM		> 100 µM	> 100 µM	> 100 µM	> 100 µM	> 100 µM		31.3 µM	> 100 µM	> 100 µM	> 100 µM	41.4 µM	> 100 µM	62.9 µM		> 100 µM	> 100 µM	
O=C1CCC(Cl)=CC2CCCN12 (configuration not stated)	> 100 µM	> 100 µM		> 100 µM	> 100 µM	> 100 µM	> 100 µM	> 100 µM	> 100 µM											
O=C(Nc1ccn(CCO)c(=O)n1)c1ccccc1	> 100 µM		> 100 µM	> 100 µM	> 100 µM	> 100 µM	> 100 µM	> 100 µM												
CNCc1ccccc1-c1csc([C@@H](C)Nc2nc(C)nc3cc(OC)c(OC)cc23)c1	4.3 µM		2.38 µM	2.48 µM	2.84 µM	2.65 µM	2.94 µM		15.5 µM	1.23 µM	1.31 µM	4.59 µM	15.6 µM	1.33 µM	1.5 µM		2.83 µM	1.77 µM		0.624 µM
